Assay results taken from US12054498B2, “Heteroaromatic macrocyclic ether chemotherapeutic agents” (Nuvalent, Inc., priority 2020, dated 2024).
pIC50, pKi: −log10 of the molar value.

Key:
[1] = molecular target: T1, ALK-wt (Homo sapiens, UniProt Q9UM73); assay: Biochemical kinase assay, ALK-wt kinase domain; conditions: apparent inhibitory constant, Morrison equation; ATP 2 mM in substrate solution; read-out: ALK-wt Ki^app
T1 construct: purchased Carna 08-518
Procedure: (§1) First, 250 nL of compound dissolved in DMSO (100-fold of the desired concentration) was dispensed into a 384-well plate. A 12.5 μL substrate solution containing ATP (2 mM) and fluorogenic phosphorylation substrate AQT0101 (26 μM for ALK and ROS1, AssayQuant) or AQT0104 (26 μM for TRKA, AssayQuant) in buffer (50 mM HEPES pH 7.5, 0.01% Brij-35, 0.5 mM EGTA, 10 mM MgCl2) was added and mixed thoroughly. Then, a 12.5 μL kinase solution containing ALK-wt (1.5 nM, Carna, 08-518), ALK ALK L1196M/G1202R (3 nM, SignalChem, A19-12NG), ROS1-wt (0.6 nM, Carna, 08-163), ROS1-G2032R (0.5 nM, SignalChem, R14-12BG), or TRKA-wt (1 nM, BPS Bio, 40280) kinase domains in buffer (50 nM HEPES pH 7.5, 0.01% Brij-35, 2% glycerol, 0.4 mg/mL BSA, 0.5 mM EGTA, and 10 mM MgCl2) was added and mixed thoroughly. The plate was sealed and read by SpectraMax Paradigm at λ=485 nm every 2 minutes for 120 minutes at 30° C. Initial rates of reaction (v) were calculated from the change in fluorescence intensity over time during the initial, linear portion of the reaction. Finally, apparent inhibitory constants (Ki^app) were determined from regression of v and I (inhibitor concentration) to Morrison Equation (E=enzyme concentration): […]

[2] = molecular target: T2, ALK L1196M/G1202R (Homo sapiens, UniProt Q9UM73, G1202R/L1196M); assay: Biochemical kinase assay, ALK L1196M/G1202R kinase domain; conditions: apparent inhibitory constant, Morrison equation; ATP 2 mM in substrate solution; read-out: ALK-L1196M-G1202R Ki^app
T2 construct: purchased SignalChem A19-12NG
T2 sequence (Q9UM73 1116-1392 L1196M/G1202R limits assumed): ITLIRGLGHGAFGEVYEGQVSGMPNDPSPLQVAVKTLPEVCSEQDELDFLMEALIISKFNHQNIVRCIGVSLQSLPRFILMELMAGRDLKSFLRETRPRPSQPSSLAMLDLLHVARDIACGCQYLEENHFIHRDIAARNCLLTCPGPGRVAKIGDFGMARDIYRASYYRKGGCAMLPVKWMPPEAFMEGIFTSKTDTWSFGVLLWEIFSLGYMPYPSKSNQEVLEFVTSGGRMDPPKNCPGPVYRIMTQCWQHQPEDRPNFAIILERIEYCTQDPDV
Procedure: as §1

[3] = molecular target: T3, ROS1-wt (Homo sapiens, UniProt P08922); assay: Biochemical kinase assay, ROS1-wt kinase domain; conditions: apparent inhibitory constant, Morrison equation; ATP 2 mM in substrate solution; read-out: ROS1-wt Ki^app
T3 construct: purchased Carna 08-163
T3 sequence (P08922 1945-2222 limits assumed): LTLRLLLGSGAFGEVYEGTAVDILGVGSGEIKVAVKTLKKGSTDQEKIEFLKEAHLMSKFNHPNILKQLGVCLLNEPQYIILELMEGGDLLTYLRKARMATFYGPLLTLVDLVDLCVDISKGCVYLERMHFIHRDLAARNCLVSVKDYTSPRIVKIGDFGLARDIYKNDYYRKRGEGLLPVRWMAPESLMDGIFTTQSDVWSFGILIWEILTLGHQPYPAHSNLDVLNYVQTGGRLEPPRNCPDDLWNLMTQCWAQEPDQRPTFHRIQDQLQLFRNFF
Procedure: as §1, with “Then, a 12.5 μL kinase solution containing ALK-wt (1.5 nM, Carna, 08-518), ALK ALK L1196M/G1202R (3 nM, SignalChem, A19-12NG), ROS1-wt (0.6 nM, Carna, 08-163), ROS1-G2032R (0.5 nM, SignalChem, R14-12BG), or TRKA-wt (1 nM, BPS Bio, 40280) kinase domains in buffer (50 nM HEPES pH 7.5, 0.01% Brij-35, 2% glycerol, 0.4 mg/mL BSA, 0.5 mM EGTA, and 10 mM MgCl2) was added and mixed thoroughly.” left out

[4] = molecular target: T4, ROS1-G2032R (Homo sapiens, UniProt P08922, G2032R); assay: Biochemical kinase assay, ROS1-G2032R kinase domain; conditions: apparent inhibitory constant, Morrison equation; ATP 2 mM in substrate solution; read-out: ROS1-G2032R Ki^app
T4 construct: purchased SignalChem R14-12BG
T4 sequence (P08922 1945-2222 G2032R limits assumed): as the sequence (P08922 1945-2222 limits assumed) above, with G88R counted along it
Procedure: as §1, with “Then, a 12.5 μL kinase solution containing ALK-wt (1.5 nM, Carna, 08-518), ALK ALK L1196M/G1202R (3 nM, SignalChem, A19-12NG), ROS1-wt (0.6 nM, Carna, 08-163), ROS1-G2032R (0.5 nM, SignalChem, R14-12BG), or TRKA-wt (1 nM, BPS Bio, 40280) kinase domains in buffer (50 nM HEPES pH 7.5, 0.01% Brij-35, 2% glycerol, 0.4 mg/mL BSA, 0.5 mM EGTA, and 10 mM MgCl2) was added and mixed thoroughly.” left out

[5] = molecular target: T5, TRKA-wt (Homo sapiens, UniProt P04629); assay: Biochemical kinase assay, TRKA-wt kinase domain; conditions: apparent inhibitory constant, Morrison equation; ATP 2 mM in substrate solution; read-out: TRKA-wt Ki^app
T5 construct: or TRKA-wt (1 nM, BPS Bio, 40280) kinase domains in buffer; purchased BPS Bio 40280
T5 sequence (P04629 510-781 limits assumed): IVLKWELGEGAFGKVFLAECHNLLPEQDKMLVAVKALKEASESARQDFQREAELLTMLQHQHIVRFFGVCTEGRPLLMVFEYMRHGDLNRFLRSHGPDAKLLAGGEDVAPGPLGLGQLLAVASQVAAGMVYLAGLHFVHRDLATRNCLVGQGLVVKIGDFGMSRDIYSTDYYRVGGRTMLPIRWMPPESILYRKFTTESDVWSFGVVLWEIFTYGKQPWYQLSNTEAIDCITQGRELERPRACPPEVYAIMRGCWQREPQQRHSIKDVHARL
Procedure: as §1

[6] = molecular target: T6, Ba/F3 cells CD74-ROS1 wild-type (wt) (Homo sapiens, UniProt P08922); assay: Ba/F3 cell proliferation assay, CD74-ROS1 wild-type; type: cell-based; conditions: 72 hours, CellTiter-Glo
T6 construct: fusion of the C-terminus of ROS1 with the N-terminus of various partner proteins; host or cells: Ba/F3 (RIKEN), retroviral pMSCV-puro; the other entry of the earlier key: CD74 (P04233, HLA class II histocompatibility antigen gamma chain)
T6 sequence (P08922 1883-2347 limits assumed): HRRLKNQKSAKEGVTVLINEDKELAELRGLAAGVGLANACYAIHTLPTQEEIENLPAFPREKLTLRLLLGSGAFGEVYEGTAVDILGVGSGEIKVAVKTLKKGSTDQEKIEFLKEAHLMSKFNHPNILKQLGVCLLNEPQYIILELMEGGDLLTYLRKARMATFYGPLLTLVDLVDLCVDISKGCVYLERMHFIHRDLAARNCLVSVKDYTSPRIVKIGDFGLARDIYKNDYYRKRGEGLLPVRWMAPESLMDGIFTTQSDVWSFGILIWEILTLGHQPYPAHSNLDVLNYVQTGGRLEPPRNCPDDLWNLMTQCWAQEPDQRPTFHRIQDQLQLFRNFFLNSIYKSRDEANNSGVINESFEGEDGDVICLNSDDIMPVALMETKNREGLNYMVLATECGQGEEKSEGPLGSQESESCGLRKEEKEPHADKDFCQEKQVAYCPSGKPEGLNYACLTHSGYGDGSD
Outline: (§2)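 IL-3-independent Ba/F3 CD74-ROS1 lines, puromycin-selected monoclones; 1,000 cells/well, plated 1 d before dosing; 3-fold serial dilutions, 72 h; CellTiter-Glo luminescence; IC50 by 4-parameter logistic regression.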

[7] = molecular target: T7, Ba/F3 cells CD74-ROS1 G2032R (Homo sapiens, UniProt P08922, G2032R); assay: Ba/F3 cell proliferation assay, CD74-ROS1 G2032R; type: cell-based; conditions: 72 hours, CellTiter-Glo
T7 construct: fusion of the C-terminus of ROS1 with the N-terminus of various partner proteins; host or cells: Ba/F3 (RIKEN), retroviral pMSCV-puro; the other entry of the earlier key: CD74 (P04233, HLA class II histocompatibility antigen gamma chain)
T7 sequence (P08922 1883-2347 G2032R limits assumed): as the sequence (P08922 1883-2347 limits assumed) above, with G150R counted along it
Outline: as §2

[8] = molecular target: T8, Ba/F3 cells EML4-ALK wt (variant 1) (Homo sapiens, UniProt Q9UM73); assay: Ba/F3 cell proliferation assay, EML4-ALK wt (variant 1); type: cell-based; conditions: 72 hours, CellTiter-Glo
T8 construct: echinoderm microtubule-associated protein-like 4 (EML4) gene and the ALK tyrosine kinase domain; host or cells: Ba/F3 (RIKEN), retroviral pMSCV-puro; the other entry of the earlier key: EML4 (Q9HC35, Echinoderm microtubule-associated protein-like 4)
T8 sequence (Q9UM73 with tags, fused parts or gaps): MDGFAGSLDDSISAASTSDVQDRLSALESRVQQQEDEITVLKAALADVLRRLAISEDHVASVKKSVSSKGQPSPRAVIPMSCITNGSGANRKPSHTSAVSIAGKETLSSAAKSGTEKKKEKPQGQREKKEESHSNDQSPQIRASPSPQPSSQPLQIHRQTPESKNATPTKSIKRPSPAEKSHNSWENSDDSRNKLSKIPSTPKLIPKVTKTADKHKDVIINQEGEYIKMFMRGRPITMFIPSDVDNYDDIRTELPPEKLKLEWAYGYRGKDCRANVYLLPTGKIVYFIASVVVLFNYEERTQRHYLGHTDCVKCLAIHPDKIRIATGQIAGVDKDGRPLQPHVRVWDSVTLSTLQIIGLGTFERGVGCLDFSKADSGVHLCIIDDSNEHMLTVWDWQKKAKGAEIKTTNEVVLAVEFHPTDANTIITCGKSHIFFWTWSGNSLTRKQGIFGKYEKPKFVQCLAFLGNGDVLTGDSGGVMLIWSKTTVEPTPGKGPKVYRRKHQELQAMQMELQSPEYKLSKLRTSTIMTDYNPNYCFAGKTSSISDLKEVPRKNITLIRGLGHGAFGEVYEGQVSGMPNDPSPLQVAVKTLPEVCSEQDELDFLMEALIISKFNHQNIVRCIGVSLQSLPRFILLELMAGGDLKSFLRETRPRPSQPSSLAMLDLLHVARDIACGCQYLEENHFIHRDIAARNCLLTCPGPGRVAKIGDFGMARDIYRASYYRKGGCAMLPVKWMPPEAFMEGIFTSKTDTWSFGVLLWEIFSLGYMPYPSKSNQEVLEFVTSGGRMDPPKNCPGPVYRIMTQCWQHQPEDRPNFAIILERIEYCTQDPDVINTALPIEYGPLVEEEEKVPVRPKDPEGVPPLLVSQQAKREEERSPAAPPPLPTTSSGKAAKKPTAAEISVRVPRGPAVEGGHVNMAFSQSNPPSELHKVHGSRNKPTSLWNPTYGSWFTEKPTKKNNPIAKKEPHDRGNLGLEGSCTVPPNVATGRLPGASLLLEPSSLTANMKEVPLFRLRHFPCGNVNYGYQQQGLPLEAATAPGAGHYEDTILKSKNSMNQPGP
Outline: (§3)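 Stable fusion-expressing Ba/F3 clones, 1,000 cells/well. Compounds for 72 h, CellTiter-Glo readout; IC50 by 4-parameter logistic regression.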

[9] = molecular target: T9, Ba/F3 cells EML4-ALK L1196M/G1202R (variant 1) (Homo sapiens, UniProt Q9UM73, G1202R/L1196M); assay: Ba/F3 cell proliferation assay, EML4-ALK L1196M/G1202R (variant 1); type: cell-based; conditions: 72 hours, CellTiter-Glo
T9 construct: echinoderm microtubule-associated protein-like 4 (EML4) gene and the ALK tyrosine kinase domain; host or cells: Ba/F3 (RIKEN), retroviral pMSCV-puro; the other entry of the earlier key: EML4 (Q9HC35, Echinoderm microtubule-associated protein-like 4)
T9 sequence (Q9UM73 with tags, fused parts or gaps L1196M/G1202R): as the sequence (Q9UM73 with tags, fused parts or gaps) above, with L635M, G641R counted along it
Outline: as §3

[10] = molecular target: T10, Ba/F3 cells TPM3-TRKA (Homo sapiens, UniProt P04629); assay: Ba/F3 cell proliferation assay, TPM3-TRKA; type: cell-based; conditions: 72 hours, CellTiter-Glo, read-out: TPM3-NTRK1-wt IC50
T10 construct: host or cells: Ba/F3 (RIKEN), retroviral pMSCV-puro; the other entry of the earlier key: TPM3 (P06753, Tropomyosin alpha-3 chain)
T10 sequence (P04629 510-796 limits assumed): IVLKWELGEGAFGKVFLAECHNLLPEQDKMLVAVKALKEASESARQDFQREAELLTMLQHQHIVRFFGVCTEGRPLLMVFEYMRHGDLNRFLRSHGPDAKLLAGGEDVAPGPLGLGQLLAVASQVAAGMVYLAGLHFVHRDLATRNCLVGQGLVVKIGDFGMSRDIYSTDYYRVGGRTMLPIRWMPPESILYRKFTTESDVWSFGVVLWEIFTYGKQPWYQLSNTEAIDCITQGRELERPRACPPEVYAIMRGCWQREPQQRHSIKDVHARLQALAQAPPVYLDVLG
Outline: as §3

[11] = tested on: TPM3-NTRK1-wt IC50 / primary target IC50 (e.g. CD74-ROS1-wt); assay: TRKA selectivity in Ba/F3 cells (TRKA potency divided by primary target potency); type: cell-based; conditions: for TPM3-NTRK1-wt/CD74-ROS1-G2032R selectivity ratio: TRKA potency / CD74-ROS1-G2032R potency; for TPM3-NTRK1-wt/CD74-ROS1-wt selectivity ratio: TRKA potency / CD74-ROS1-wt potency; for TPM3-NTRK1-wt/EML4-ALK-L1196M-G1202R selectivity ratio: TRKA potency / EML4-ALK-L1196M-G1202R potency; for TPM3-NTRK1-wt/EML4-ALK-wt selectivity ratio: TRKA potency / EML4-ALK-wt potency
Procedure: TRKA selectivity was calculated by dividing a compound's TRKA potency by its primary target potency (e.g. TPM3-NTRK1-wt IC50/CD74-ROS1-wt IC50). Compound selectivity can be interpreted by binning ratio values: bin A for very high selectivity, ratio >30-fold; bin B for high selectivity, ratio >10-fold; bin C for moderate selectivity, ratio ≥1; and bin D for low selectivity, ratio <1. […] (nd=not determined).

T1 sequence (Q9UM73 1116-1392 limits assumed): as the sequence (Q9UM73 1116-1392 L1196M/G1202R limits assumed) above, with M81L, R87G counted along it

| SMILES | pKi [1] | pKi [2] | pKi [3] | pKi [4] | pKi [5] | pIC50 [6] | pIC50 [7] | pIC50 [8] | pIC50 [9] | pIC50 [10] | TPM3-NTRK1-wt/CD74-ROS1-G2032R selectivity ratio [11] | TPM3-NTRK1-wt/CD74-ROS1-wt selectivity ratio [11] | TPM3-NTRK1-wt/EML4-ALK-L1196M-G1202R selectivity ratio [11] | TPM3-NTRK1-wt/EML4-ALK-wt selectivity ratio [11] |
| --- | --- | --- | --- | --- | --- | --- | --- | --- | --- | --- | --- | --- | --- | --- |
| CCn1ncc2c1-c1cnc(N)c(c1)O[C@H](C)c1cc(F)ccc1-c1ccnn1C2 [Example 1, (19R)-3-ethyl-16-fluoro-19-methyl-20-oxa-3,4,8,9,23-pentaazapentacyclo[19.3.1.0^2,^6.0^8,^12.0^13,^18]pentacosa-1(24),2(6),4,9,11,13,15,17,21(25),22-decaen-22-amine] | > 7.30 | > 7.30 | > 7.30 | > 7.30 | 6.30 to 7.30 | 7.30 to 10.00 | 7.30 to 10.00 | 7.30 to 10.00 | 6.30 to 7.30 | < 6.30 | A (bin A for very high selectivity, ratio >30-fold) | A (bin A for very high selectivity, ratio >30-fold) | B (bin B for high selectivity, ratio >10-fold) | A (bin A for very high selectivity, ratio >30-fold) |
| CCn1ncc2c1-c1cnc(N)c(c1)O[C@H](C)c1cc(F)ccc1-c1c(C#N)cnn1C2 [Example 3, (19R)-22-amino-3-ethyl-16-fluoro-19-methyl-20-oxa-3,4,8,9,23-pentaazapentacyclo[19.3.1.0^2,^6.08,^12.0^13,^18]pentacosa-1(24),2(6),4,9,11,13,15,17,21(25),22-decaene-11 carbonitrile] | > 7.30 | > 7.30 | > 7.30 | > 7.30 | 6.30 to 7.30 | 7.30 to 10.00 | 7.30 to 10.00 | 7.30 to 10.00 | 6.30 to 7.30 | < 6.30 | A (bin A for very high selectivity, ratio >30-fold) | A (bin A for very high selectivity, ratio >30-fold) | C (bin C for moderate selectivity, ratio ≥1) | A (bin A for very high selectivity, ratio >30-fold) |
| CCn1ncc2c1-c1cnc(N)c(c1)O[C@H](C)c1cc(F)ccc1-c1cc(C)nn1C2 [Example 4, (19R)-3-ethyl-16-fluoro-10,19-dimethyl-20-oxa-3,4,8,9,23-pentaazapentacyclo[19.3.1.0^2,^6.0^8,^12.0^13,^18]pentacosa-1(24),2(6),4,9,11,13,15,1 7,21 (25),22-decaen-22-amine] | > 7.30 | > 7.30 | > 7.30 | > 7.30 | 6.30 to 7.30 | 7.30 to 10.00 | 7.30 to 10.00 | 7.30 to 10.00 | 6.30 to 7.30 | 6.30 to 7.30 | A (bin A for very high selectivity, ratio >30-fold) | A (bin A for very high selectivity, ratio >30-fold) | C (bin C for moderate selectivity, ratio ≥1) | B (bin B for high selectivity, ratio >10-fold) |
